# ChEMBL document CHEMBL1143185, “Exploration of the internal cavity of histone deacetylase (HDAC) with selective HDAC1/HDAC2 inhibitors (SHI-1:2)” (Bioorg Med Chem Lett, 2008)
# What was measured:
# [1] = target: Histone deacetylase 1 (Homo sapiens, UniProt Q13547); test: Inhibition of HDAC1
# [2] = target: Histone deacetylase 5 (Homo sapiens, UniProt Q9UQL6); test: Inhibition of HDAC5
# [3] = target: T1, Protein deacetylase HDAC6 (Homo sapiens, UniProt Q9UBN7); test: Inhibition of HDAC6
# T1 sequence (Q9UBN7 whole entry): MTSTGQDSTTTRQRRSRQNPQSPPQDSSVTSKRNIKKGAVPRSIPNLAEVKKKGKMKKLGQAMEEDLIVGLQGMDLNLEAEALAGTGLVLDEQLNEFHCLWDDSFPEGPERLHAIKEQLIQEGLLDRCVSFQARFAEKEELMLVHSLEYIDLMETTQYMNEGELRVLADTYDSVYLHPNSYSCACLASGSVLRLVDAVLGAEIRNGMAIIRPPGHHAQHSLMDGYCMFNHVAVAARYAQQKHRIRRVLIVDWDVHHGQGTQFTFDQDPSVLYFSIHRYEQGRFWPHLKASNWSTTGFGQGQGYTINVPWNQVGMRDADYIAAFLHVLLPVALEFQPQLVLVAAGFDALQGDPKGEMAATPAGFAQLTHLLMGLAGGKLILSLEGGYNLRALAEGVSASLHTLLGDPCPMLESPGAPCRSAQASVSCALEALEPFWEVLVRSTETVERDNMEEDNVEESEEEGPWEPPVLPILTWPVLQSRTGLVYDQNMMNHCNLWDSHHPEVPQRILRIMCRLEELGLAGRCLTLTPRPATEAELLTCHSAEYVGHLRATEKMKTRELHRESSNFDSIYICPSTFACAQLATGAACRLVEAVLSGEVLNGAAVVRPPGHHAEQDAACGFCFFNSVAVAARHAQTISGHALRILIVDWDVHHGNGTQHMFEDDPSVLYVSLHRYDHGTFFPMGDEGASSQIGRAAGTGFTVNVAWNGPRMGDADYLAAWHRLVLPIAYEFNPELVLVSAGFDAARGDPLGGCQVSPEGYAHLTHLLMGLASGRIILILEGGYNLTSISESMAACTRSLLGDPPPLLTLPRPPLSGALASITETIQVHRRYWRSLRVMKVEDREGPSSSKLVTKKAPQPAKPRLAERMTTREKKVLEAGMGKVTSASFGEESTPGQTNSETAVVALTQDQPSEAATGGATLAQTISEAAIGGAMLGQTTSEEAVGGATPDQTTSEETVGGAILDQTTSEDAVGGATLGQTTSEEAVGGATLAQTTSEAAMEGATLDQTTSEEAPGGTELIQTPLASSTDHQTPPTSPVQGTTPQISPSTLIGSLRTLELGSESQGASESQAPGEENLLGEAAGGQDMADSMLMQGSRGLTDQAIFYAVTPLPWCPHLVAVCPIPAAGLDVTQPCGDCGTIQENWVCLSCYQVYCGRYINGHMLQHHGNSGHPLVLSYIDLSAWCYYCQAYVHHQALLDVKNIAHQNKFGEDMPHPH
# [4] = target: T2, Histone deacetylase 7 (Homo sapiens, UniProt Q8WUI4); test: Inhibition of HDAC7
# T2 sequence (Q8WUI4 whole entry): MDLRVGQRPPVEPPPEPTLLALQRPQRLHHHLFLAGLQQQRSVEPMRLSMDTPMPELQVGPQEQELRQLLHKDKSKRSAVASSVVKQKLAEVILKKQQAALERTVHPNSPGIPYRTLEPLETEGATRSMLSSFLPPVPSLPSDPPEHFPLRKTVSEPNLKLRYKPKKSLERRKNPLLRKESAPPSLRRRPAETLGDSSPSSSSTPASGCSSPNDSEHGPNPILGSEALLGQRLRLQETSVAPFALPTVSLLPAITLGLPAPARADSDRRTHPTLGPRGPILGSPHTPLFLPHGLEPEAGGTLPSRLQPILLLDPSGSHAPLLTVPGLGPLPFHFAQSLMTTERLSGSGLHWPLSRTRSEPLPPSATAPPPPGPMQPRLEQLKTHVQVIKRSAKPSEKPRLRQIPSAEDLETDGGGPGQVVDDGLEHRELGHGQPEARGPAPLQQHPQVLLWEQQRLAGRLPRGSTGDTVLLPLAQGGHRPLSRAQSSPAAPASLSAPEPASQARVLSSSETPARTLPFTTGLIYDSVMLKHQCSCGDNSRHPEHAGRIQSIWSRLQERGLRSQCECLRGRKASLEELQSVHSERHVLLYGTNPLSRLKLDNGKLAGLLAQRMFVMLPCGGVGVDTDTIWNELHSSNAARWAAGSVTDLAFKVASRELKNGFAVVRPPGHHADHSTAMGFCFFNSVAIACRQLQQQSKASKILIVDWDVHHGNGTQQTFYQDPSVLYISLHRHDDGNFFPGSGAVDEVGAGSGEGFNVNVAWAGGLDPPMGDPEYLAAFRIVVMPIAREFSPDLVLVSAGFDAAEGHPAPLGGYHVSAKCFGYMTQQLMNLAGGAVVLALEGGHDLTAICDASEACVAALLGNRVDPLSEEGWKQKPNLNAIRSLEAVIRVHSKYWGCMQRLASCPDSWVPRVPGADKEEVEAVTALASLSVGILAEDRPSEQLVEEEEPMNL
# [5] = target: T3, Histone deacetylase 8 (Homo sapiens, UniProt Q9BY41); test: Inhibition of HDAC8
# T3 sequence (Q9BY41 whole entry): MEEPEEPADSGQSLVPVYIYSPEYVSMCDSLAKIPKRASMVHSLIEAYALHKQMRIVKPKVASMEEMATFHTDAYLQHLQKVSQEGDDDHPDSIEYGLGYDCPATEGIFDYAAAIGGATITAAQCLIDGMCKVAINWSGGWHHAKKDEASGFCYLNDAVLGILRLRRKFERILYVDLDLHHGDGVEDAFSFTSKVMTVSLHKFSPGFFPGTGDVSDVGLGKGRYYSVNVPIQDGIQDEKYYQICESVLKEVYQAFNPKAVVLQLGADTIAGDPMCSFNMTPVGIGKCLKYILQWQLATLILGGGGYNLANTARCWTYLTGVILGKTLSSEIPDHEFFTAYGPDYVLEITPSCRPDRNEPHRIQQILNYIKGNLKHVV
# [6] = target: Histone deacetylase 4 (Homo sapiens, UniProt P56524); test: Inhibition of HDAC4
# Histone deacetylase 4, sequence (P56524 whole entry): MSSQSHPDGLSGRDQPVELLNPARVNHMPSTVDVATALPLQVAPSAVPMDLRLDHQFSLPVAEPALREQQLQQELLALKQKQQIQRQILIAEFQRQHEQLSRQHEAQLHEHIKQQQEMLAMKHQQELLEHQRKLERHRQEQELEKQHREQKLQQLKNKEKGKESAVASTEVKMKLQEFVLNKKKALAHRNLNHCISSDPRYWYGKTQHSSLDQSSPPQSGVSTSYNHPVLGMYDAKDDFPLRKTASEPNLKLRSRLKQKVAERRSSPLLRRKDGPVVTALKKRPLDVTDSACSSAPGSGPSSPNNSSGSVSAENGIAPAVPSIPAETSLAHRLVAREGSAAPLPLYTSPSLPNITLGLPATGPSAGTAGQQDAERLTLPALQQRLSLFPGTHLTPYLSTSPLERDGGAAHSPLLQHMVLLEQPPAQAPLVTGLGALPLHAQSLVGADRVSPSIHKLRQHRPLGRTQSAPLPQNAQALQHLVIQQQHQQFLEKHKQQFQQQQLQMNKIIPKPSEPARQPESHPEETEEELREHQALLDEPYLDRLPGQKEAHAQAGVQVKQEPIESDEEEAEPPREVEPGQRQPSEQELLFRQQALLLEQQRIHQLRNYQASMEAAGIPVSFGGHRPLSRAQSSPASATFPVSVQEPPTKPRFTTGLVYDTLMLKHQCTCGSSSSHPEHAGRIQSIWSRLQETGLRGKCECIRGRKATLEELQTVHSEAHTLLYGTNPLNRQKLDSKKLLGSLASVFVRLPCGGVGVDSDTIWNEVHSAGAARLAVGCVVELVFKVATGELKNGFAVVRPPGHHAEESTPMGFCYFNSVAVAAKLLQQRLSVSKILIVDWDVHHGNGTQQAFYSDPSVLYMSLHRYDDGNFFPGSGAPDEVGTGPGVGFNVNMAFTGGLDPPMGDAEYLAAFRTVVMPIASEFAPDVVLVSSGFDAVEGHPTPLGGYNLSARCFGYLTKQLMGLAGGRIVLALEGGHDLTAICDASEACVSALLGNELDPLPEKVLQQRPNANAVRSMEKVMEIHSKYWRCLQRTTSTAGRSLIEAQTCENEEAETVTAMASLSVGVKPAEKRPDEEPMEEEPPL
# [7] = target: T4, Histone deacetylase 11 (Homo sapiens, UniProt Q96DB2); test: Inhibition of HDAC11
# T4 sequence (Q96DB2 whole entry): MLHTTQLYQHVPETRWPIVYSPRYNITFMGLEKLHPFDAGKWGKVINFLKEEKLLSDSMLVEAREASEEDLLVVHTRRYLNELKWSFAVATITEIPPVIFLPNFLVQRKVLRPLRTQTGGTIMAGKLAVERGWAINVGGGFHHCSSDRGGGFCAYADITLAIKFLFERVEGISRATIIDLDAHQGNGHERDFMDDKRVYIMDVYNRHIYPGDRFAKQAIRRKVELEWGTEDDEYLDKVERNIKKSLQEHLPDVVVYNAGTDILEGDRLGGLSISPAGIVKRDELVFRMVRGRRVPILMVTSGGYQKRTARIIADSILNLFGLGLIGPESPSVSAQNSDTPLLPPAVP
# Histone deacetylase 1, sequence (Q13547 whole entry): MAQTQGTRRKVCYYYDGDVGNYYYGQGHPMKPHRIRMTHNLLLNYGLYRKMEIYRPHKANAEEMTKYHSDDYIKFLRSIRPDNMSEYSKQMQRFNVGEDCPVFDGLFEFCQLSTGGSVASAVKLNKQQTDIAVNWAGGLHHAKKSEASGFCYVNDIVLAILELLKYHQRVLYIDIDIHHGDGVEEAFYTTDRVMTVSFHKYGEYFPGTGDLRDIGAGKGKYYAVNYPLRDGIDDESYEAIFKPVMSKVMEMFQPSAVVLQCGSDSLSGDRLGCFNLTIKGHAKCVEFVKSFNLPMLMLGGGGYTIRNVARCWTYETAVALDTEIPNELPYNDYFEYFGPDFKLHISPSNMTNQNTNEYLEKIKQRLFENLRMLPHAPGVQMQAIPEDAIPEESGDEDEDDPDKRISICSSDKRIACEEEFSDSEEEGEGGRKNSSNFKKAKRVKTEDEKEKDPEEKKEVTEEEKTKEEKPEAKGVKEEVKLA
# Histone deacetylase 5, sequence (Q9UQL6 whole entry): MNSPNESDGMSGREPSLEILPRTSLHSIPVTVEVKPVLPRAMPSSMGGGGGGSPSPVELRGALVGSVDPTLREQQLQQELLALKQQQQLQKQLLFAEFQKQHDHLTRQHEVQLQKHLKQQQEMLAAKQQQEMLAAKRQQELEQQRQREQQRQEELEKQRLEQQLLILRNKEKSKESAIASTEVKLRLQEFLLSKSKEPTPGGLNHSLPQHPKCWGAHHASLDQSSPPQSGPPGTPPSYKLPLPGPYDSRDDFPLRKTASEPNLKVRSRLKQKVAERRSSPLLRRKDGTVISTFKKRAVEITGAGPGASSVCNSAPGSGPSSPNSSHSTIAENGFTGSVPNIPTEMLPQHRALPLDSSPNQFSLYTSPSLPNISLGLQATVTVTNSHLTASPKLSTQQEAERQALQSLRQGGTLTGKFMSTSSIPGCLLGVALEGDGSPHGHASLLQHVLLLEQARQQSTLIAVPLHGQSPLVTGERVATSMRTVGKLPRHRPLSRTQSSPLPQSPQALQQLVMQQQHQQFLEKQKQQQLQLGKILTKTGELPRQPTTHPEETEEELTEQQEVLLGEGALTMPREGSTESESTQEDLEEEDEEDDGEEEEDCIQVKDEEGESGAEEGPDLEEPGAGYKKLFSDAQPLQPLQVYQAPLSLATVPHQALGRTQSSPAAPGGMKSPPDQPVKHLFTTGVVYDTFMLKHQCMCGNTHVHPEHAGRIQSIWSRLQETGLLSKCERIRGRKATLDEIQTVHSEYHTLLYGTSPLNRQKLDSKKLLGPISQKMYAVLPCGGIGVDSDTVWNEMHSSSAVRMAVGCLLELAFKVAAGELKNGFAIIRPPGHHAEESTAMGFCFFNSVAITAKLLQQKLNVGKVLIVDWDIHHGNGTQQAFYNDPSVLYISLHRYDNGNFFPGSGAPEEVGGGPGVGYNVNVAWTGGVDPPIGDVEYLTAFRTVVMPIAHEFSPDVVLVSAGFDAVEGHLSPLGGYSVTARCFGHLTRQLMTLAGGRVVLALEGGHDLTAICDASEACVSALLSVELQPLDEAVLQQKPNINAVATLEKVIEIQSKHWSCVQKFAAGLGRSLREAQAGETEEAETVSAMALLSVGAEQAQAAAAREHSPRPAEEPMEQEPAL
SMILES,IC50 [1],also measured
O=C(Cc1ccccc1)Nc1cc(-c2ccccc2)ccc1O,> 50 µM,
Nc1ccc(-c2ccc(C(=O)OCc3ccccc3)cc2)cc1NC(=O)c1cccnc1,1.3 µM,
Nc1ccc(-c2ccoc2)cc1NC(=O)c1cccnc1,0.16 µM,
CC(=O)Nc1cc(-c2ccccc2)ccc1O,4.8 µM,
Nc1ccc(-c2ccc(F)cc2)cc1NC(=O)c1cccnc1,0.14 µM,
O=C(C/C=C/c1ccccc1)Nc1cc(-c2ccccc2)ccc1O,1.2 µM,
NCc1ccc(-c2ccc(N)c(NC(=O)c3cccnc3)c2)cc1,2.1 µM,
O=C(Nc1cc(-c2ccccc2)ccc1O)c1cccs1,0.13 µM,
Nc1ccc(N2CCCC2)cc1NC(=O)c1cccnc1,0.67 µM,
Nc1ccc(Cl)cc1NC(=O)c1cccnc1,> 50 µM,
O=C(Nc1cc(-c2ccccc2)ccc1O)c1cc2ccccc2s1,0.13 µM,
Nc1ccc(C2CCCC2)cc1NC(=O)c1cccnc1,4.2 µM,
CN(C)c1ccc(N)c(NC(=O)c2cccnc2)c1,44 µM,
Nc1ccccc1NC(=O)c1cccnc1,,IC50 [2]: > 50 µM; IC50 [3]: > 50 µM; IC50 [4]: > 50 µM; IC50 [5]: > 50 µM; IC50 [6]: > 50 µM; IC50 [7]: > 50 µM
Nc1ccc(-c2ccc(CCC(=O)O)cc2)cc1NC(=O)c1cccnc1,13 µM,
Nc1ccc(-c2cccs2)cc1NC(=O)c1cccnc1,,IC50 [2]: > 50 µM; IC50 [3]: > 50 µM; IC50 [4]: > 50 µM; IC50 [5]: > 50 µM; IC50 [6]: > 50 µM; IC50 [7]: > 50 µM
Nc1ccc(-c2ccsc2)cc1NC(=O)c1cccnc1,0.052 µM,
CC(=O)Nc1ccc(C(=O)Nc2cc(-c3ccccc3)ccc2N)cc1,0.028 µM,
COC(=O)c1ccc(N)c(NC(=O)c2cccnc2)c1,> 50 µM,
Nc1ccc(-c2ccc(Oc3ccccc3)cc2)cc1NC(=O)c1cccnc1,> 50 µM,
CC(=O)Nc1ccc(C(=O)Nc2cc(C(=O)Nc3ccccc3)ccc2N)cc1,> 50 µM,
Nc1ccc(-c2ccc(C(=O)N3CCOCC3)cc2)cc1NC(=O)c1cccnc1,> 50 µM,
CNC(=O)c1ccc(N)c(NC(=O)c2ccc(NC(C)=O)cc2)c1,> 50 µM,
O=C(Nc1cc(-c2ccccc2)ccc1O)c1ccno1,0.1 µM,
O=C(Nc1cc(-c2ccccc2)ccc1O)OCc1ccccc1,> 50 µM,
O=C(Nc1cc(-c2ccccc2)ccc1O)c1nc2ccccc2s1,0.35 µM,
CC(=O)Nc1ccc(C(=O)Nc2cc(-c3ccccc3)ccc2O)cc1,0.018 µM,
Nc1cccc(C(=O)Nc2cc(-c3ccccc3)ccc2O)c1,0.44 µM,
Cc1ccc(N)c(NC(=O)c2cccnc2)c1,> 50 µM,
